Results from patent US20200261391A1, “METHODS OF REDUCING THE RISK OF A CARDIOVASCULAR EVENT IN A STATIN-TREATED SUBJECT BY INCREASING SERUM AND PLASMA EPA AND DPA LEVELS” (Amarin Pharmaceuticals Ireland Limited, priority 2019, published 2020).

Tested on: patients with elevated triglyceride levels on statin therapy
Assay: REDUCE-IT trial: safety (treatment-emergent adverse events, bleeding, atrial fibrillation/flutter)
[1] = TEAE by preferred term, Safety population, N = 4089
[2] = gastrointestinal TEAEs, Safety population, N = 4089
[3] = serious bleeding TEAE by preferred term, N = 4089

Description: Specification of Variables and Procedures: Safety assessments included adverse events, clinical laboratory measurements (chemistry, hematology), 12-lead ECGs, vital signs (systolic and diastolic blood pressure, heart rate, respiratory rate, and body temperature), weight, waist circumference, and physical examinations as per Study Procedures in Table 1. […] All laboratory test results were evaluated by the investigator as to their clinical significance. Any observations at physical examinations or laboratory values considered by the investigator to be clinically significant were considered an adverse event.
An adverse event can therefore be any unfavorable and/or unintended sign (including an abnormal laboratory finding), symptom, or disease temporally associated with the use of an investigational medication product, whether or not related to the investigational medication product. All adverse events, including observed or volunteered problems, complaints, or symptoms, were recorded on the appropriate CRF. Each adverse event was evaluated for duration, intensity, and causal relationship with the study medication or other factors.
Serious Adverse Events: A serious adverse event (SAE) is defined as an adverse event that meets any of the following criteria: • Results in death; • Is life-threatening—The term “life-threatening” in the definition of “serious” refers to an event in which the patient was at risk of death at the time of the event. […] Important medical events that may not result in death, be life threatening, or require hospitalization were considered an SAE when, based upon appropriate medical judgment, they may have jeopardized the patient and may have required medical or surgical intervention to prevent one of the outcomes listed above.
Adverse Events of Special Interest: Bleeding-related adverse events, glucose control (fasting blood glucose and HbA1c), and indicators of hepatic disorders (e.g., ALT or AST increases >3×ULN, total bilirubin increases of ≥2×ULN) were summarized separately and compared between treatment groups.
Analysis of Safety: All analyses of safety were conducted on the safety population, which was defined as all randomized patients. The safety assessment was based on the frequency of adverse events, physical exams, vital signs and safety laboratory tests. AEs with new onset during the study between the initiation of study drug and 30 days after the last dose of study drug for each patient was considered treatment-emergent (TEAEs). This included any AE with onset prior to initiation of study drug and increased severity after the treatment initiation.
This included overall incidence rates (regardless of severity and relationship to study drug), and incidence rates for moderate or severe adverse events. A summary of SAEs and adverse events leading to early discontinuation (for ≥30 days) were presented through data listings. Patients who restarted study drug were included in the summary of AEs leading to discontinuation. Safety laboratory tests and vital signs were summarized by post-treatment change from baseline for each of the parameters using descriptive statistics by treatment group. Those patients with significant laboratory abnormalities were identified in data listings. Additional safety parameters were summarized in data listings.

What does the source list for `CC/C=C\C/C=C\C/C=C\C/C=C\C/C=C\CCCC(=O)OCC` [icosapent ethyl, eicosapentaenoic acid ethyl ester]?
Pneumonia, number of patients with serious treatment-emergent adverse event (N = 4089): 105; Pneumonia, patients with serious treatment-emergent adverse event (N = 4089): 2.6%; Serious TEAE Leading to Death, % of patients (Safety population, N = 4089): (2.3%); Serious TEAE Leading to Death, number of patients (Safety population, N = 4089): 94; Serious TEAE Leading to Withdrawal of Study Drug, % of patients (Safety population, N = 4089): (2.2%); Serious TEAE Leading to Withdrawal of Study Drug, number of patients (Safety population, N = 4089): 88; Serious TEAE, % of patients (Safety population, N = 4089): (30.6%); Serious TEAE, number of patients (Safety population, N = 4089): 1252; Subjects with at Least One TEAE, % of patients (Safety population, N = 4089): (81.8%); Subjects with at Least One TEAE, number of patients (Safety population, N = 4089): 3343; TEAE Leading to Withdrawal of Study Drug, % of patients (Safety population, N = 4089): (7.9%); TEAE Leading to Withdrawal of Study Drug, number of patients (Safety population, N = 4089): 321; Anemia, % of patients [1]: 4.7%; Anemia, number of patients [1]: 191; Angina pectoris, % of patients [1]: 4.9%; Angina pectoris, number of patients [1]: 200; Arthralgia, % of patients [1]: 7.7%; Arthralgia, number of patients [1]: 313; Atrial fibrillation, % of patients [1]: 5.3%; Atrial fibrillation, number of patients [1]: 215; Back pain, % of patients [1]: 8.2%; Back pain, number of patients [1]: 335; Bronchitis, % of patients [1]: 7.5%; Bronchitis, number of patients [1]: 306; Cataract, % of patients [1]: 5.7%; Cataract, number of patients [1]: 233; Chest pain, % of patients [1]: 6.7%; Chest pain, number of patients [1]: 273; Constipation, % of patients [1]: 5.4%; Constipation, number of patients [1]: 221; Cough, % of patients [1]: 5.9%; Cough, number of patients [1]: 241; Diarrhea, % of patients [1]: 9.0%; Diarrhea, number of patients [1]: 367; Dizziness, % of patients [1]: 5.7%; Dizziness, number of patients [1]: 235; Dyspnea, % of patients [1]: 6.2%; Dyspnea, number of patients [1]: 254; Fatigue, % of patients [1]: 5.6%; Fatigue, number of patients [1]: 228; Hypertension, % of patients [1]: 7.8%; Hypertension, number of patients [1]: 320; Influenza, % of patients [1]: 6.4%; Influenza, number of patients [1]: 263; Nasopharyngitis, % of patients [1]: 7.7%; Nasopharyngitis, number of patients [1]: 314; Osteoarthritis, % of patients [1]: 5.9%; Osteoarthritis, number of patients [1]: 241; Pain in extremity, % of patients [1]: 5.7%; Pain in extremity, number of patients [1]: 235; Peripheral edema, % of patients [1]: 6.5%; Peripheral edema, number of patients [1]: 267; Pneumonia, % of patients [1]: 6.4%; Pneumonia, number of patients [1]: 263; Upper respiratory tract infection, % of patients [1]: 7.6%; Upper respiratory tract infection, number of patients [1]: 312; Urinary tract infection, % of patients [1]: 6.2%; Urinary tract infection, number of patients [1]: 253; Gastroesophageal Reflux Disease, % of patients [2]: 3.0%; Gastroesophageal Reflux Disease, number of patients [2]: 124; Gastrointestinal disorders (primary system organ class), % of patients [2]: 33.0%; Gastrointestinal disorders (primary system organ class), number of patients [2]: 1350; Nausea, % of patients [2]: 4.6%; Nausea, number of patients [2]: 190; anemia, adverse event rate (in vivo): 4.7%; atrial fibrillation or flutter requiring hospitalization (adjudicated tertiary endpoint), rate (in vivo): 3.1%; atrial fibrillation, adverse event rate (in vivo): 5.3%; diarrhea, adverse event rate (in vivo): 9%; gastrointestinal adverse events, rate (in vivo): 33.0%; gastrointestinal bleeding (serious), rate (in vivo): 1.5%; new or unexpected important adverse effects in the safety population (in vivo): no new or unexpected important adverse effects; overall adverse event rates compared with placebo (in vivo): similar; peripheral edema, adverse event rate (in vivo): 6.5%; serious central nervous system bleeding, rate (in vivo): 0.3%; tolerability (in vivo): well tolerated; treatment-emergent serious adverse events for bleeding, rate (in vivo): 2.7%; rates of adverse events or serious adverse events leading to withdrawal of study drug vs placebo (in vivo, listed as AMR101): no significant differences; Aortic Aneurysm Rupture, % of patients [3]: (0.0%); Aortic Aneurysm Rupture, number of patients [3]: 1; Brain Contusion, % of patients [3]: (0.0%); Brain Contusion, number of patients [3]: 0; Catheter Site Hemorrhage, % of patients [3]: (0.0%); Catheter Site Hemorrhage, number of patients [3]: 0; Cerebral Hemorrhage, % of patients [3]: (0.0%); Cerebral Hemorrhage, number of patients [3]: 0; Cystitis Hemorrhagic, % of patients [3]: (0.0%); Cystitis Hemorrhagic, number of patients [3]: 2; Diverticulitis Intestinal Hemorrhagic, % of patients [3]: (0.0%); Diverticulitis Intestinal Hemorrhagic, number of patients [3]: 0; Diverticulum Intestinal Hemorrhagic, % of patients [3]: (0.1%); Diverticulum Intestinal Hemorrhagic, number of patients [3]: 3; Duodenal Ulcer Hemorrhage, % of patients [3]: (0.0%); Duodenal Ulcer Hemorrhage, number of patients [3]: 2; Ecchymosis, % of patients [3]: (0.0%); Ecchymosis, number of patients [3]: 1; Epistaxis, % of patients [3]: (0.2%); Epistaxis, number of patients [3]: 7; Esophageal Hemorrhage, % of patients [3]: (0.0%); Esophageal Hemorrhage, number of patients [3]: 0
